Data taken from ChEMBL document CHEMBL1123908, “Endoperoxides as potential antimalarial agents” (J Med Chem, 1987).

Legend:
Assay type in all cases: functional, organism-based
Mus musculus [1] = test: Blood schizonticidal activity against Plasmodium berghei in mice (Mus musculus) at the dose of 640 mg/kg; Inactive; design: dose 640 mg/kg
Mus musculus [2] = test: Blood schizonticidal activity against Plasmodium berghei in mice (Mus musculus) at the dose of 40 mg/kg; Inactive; design: dose 40 mg/kg
Mus musculus [3] = test: Blood schizonticidal activity against Plasmodium berghei in mice (Mus musculus) at the dose of 160 mg/kg; Inactive; design: dose 160 mg/kg

CC(C)CCCC(C)[C@H]1CC[C@H]2C3CC=C4C[C@@H](OC(=O)OC5CCC6(C)CC7C=CC6(OO7)C5(C)C)CCC4(C)[C@H]3CCC12C (some centres not stated)
Not Active: Activity (active/inactive) (Mus musculus [1]) | Blood schizonticidal activity (Mus musculus [2]) | Activity call (Mus musculus [3])

CC(=O)OC1CCC2(C)CC3C=C[C@]2(OO3)C1(C)C (some centres not stated)
Not Active: Activity (active/inactive) (Mus musculus [1]) | Blood schizonticidal activity (Mus musculus [2]) | Activity call (Mus musculus [3])

CC(=O)OC1CCC2(C)CC3CCC2(OO3)C1(C)C (configuration not stated)
Not Active: Activity (active/inactive) (Mus musculus [1]) | Blood schizonticidal activity (Mus musculus [2]) | Activity call (Mus musculus [3])

CC12CCC(O)C(C)(C)[C@@]13C=CC(C2)OO3 (some centres not stated)
Not Active: Activity (active/inactive) (Mus musculus [1]) | Blood schizonticidal activity (Mus musculus [2]) | Activity call (Mus musculus [3])

CC12CCC(OC(=O)c3ccccc3)C(C)(C)[C@@]13C=CC(C2)OO3 (some centres not stated)
Not Active: Activity (active/inactive) (Mus musculus [1]) | Blood schizonticidal activity (Mus musculus [2]) | Activity call (Mus musculus [3])

CC12CCC(OC(=O)c3ccccc3)C(C)(C)C13CCC(C2)OO3 (configuration not stated)
Not Active: Activity (active/inactive) (Mus musculus [1]) | Blood schizonticidal activity (Mus musculus [2]) | Activity call (Mus musculus [3])

CC12CCC(O)C(C)(C)C13CCC(C2)OO3 (configuration not stated)
Not Active: Activity (active/inactive) (Mus musculus [1]) | Blood schizonticidal activity (Mus musculus [2]) | Activity call (Mus musculus [3])

CCCCOC(=O)OC1CCC2(C)CC3CCC2(OO3)C1(C)C (configuration not stated)
Not Active: Activity (active/inactive) (Mus musculus [1]) | Blood schizonticidal activity (Mus musculus [2]) | Activity call (Mus musculus [3])

CC(=O)OC(C)CCC12OO[C@@H](C=C1C)CC2(C)C (some centres not stated)
Not Active: Activity (active/inactive) (Mus musculus [1]) | Blood schizonticidal activity (Mus musculus [2]) | Activity call (Mus musculus [3])
